Read-outs that look alike come from different tables or passages of the source.
What was measured:
[1] = tested on: U118MG cells (FIG-ROS1 gene fusion); assay: Growth inhibition IC50 in ROS1 mutant glioblastoma cell line U118MG (72 hours); format: cell-based; settings: Homo sapiens, U-118-MG, read-out: Half Inhibitory Concentration (IC50) Mean
MOLM13 cells (FLT3-ITD) = assay: Growth inhibition IC50 in FLT3-ITD AML cell line MOLM13; format: cell-based; settings: Homo sapiens
[2] = tested on: SW48 cell line (EGFR G719S); assay: Growth inhibition IC50 in EGFR G719S colorectal cancer cell line SW48; format: cell-based; settings: Homo sapiens, CTG, n = 2, read-out: Half Inhibitory Concentration (IC50) Mean
[3] = target: T1, ALK protein in H3122 (EML4-ALK) cells (Homo sapiens, UniProt Q9UM73); assay: Western blot of ALK protein level (degradation, DC50), ALK phosphorylation and downstream signaling in H3122 cells; format: cell-based; settings: ALK protein degradation in H3122 cells
T1 construct: EML4 (Echinoderm microtubule-associated protein-like 4, Q9HC35) fusion partner, variant 1; host or cells: NCI-H3122 lung adenocarcinoma cells; the other entry of the earlier key: EML4 (Q9HC35, Echinoderm microtubule-associated protein-like 4)

[4] = tested on: NCI-H3122 (EML4-ALK, V1) cells; assay: Growth inhibition IC50 in lung cancer H3122 cells (Cell Titer Blue / Cell Titer Glo); settings: Homo sapiens, NCI-H3122, H3122 cells
SR (NPM-ALK) cells = assay: Growth inhibition IC50 in ALCL SR cells (CCK8/WST, 72 hours); format: cell-based; settings: SR cells, WST
[5] = tested on: PC9Brc1 (EGFR, exon 19 del+T790M) cells; assay: Growth inhibition IC50 in EGFR mutant lung cancer PC9Brc1 cells; format: cell-based; settings: CTB, n ≥ 3, read-out: Half Inhibitory Concentration (IC50) Mean
[6] = tested on: PC9 (EGFR, exon 19 del) cells; assay: Growth inhibition IC50 in EGFR mutant lung adenocarcinoma PC9 cells; format: cell-based; settings: Homo sapiens, PC-9; PC9 cells, CTB, n ≥ 3; read-out: Half Inhibitory Concentration (IC50) Mean
[7] = target: T2, ALK protein in SR (NPM-ALK) cells (Homo sapiens, UniProt Q9UM73); assay: Western blot of ALK protein level (degradation, DC50), ALK phosphorylation and downstream signaling in SR cells; format: cell-based; settings: for DC50: ALK protein degradation in SR cells
T2 construct: NPM (nucleophosmin, NPM1, P06748) fusion partner; host or cells: SR (ALCL) cells; the other entry of the earlier key: NPM1 (P06748, Nucleophosmin)

[8] = MOLM-13, read-out: Half Inhibitory Concentration (IC50) Mean
[9] = Ceritinib based ALK PROTAD compounds (Table 5)
[10] = 72 h, Brigatinib-based PROTAD molecules (Table 3)

T2 sequence (Q9UM73 with tags, fused parts or gaps): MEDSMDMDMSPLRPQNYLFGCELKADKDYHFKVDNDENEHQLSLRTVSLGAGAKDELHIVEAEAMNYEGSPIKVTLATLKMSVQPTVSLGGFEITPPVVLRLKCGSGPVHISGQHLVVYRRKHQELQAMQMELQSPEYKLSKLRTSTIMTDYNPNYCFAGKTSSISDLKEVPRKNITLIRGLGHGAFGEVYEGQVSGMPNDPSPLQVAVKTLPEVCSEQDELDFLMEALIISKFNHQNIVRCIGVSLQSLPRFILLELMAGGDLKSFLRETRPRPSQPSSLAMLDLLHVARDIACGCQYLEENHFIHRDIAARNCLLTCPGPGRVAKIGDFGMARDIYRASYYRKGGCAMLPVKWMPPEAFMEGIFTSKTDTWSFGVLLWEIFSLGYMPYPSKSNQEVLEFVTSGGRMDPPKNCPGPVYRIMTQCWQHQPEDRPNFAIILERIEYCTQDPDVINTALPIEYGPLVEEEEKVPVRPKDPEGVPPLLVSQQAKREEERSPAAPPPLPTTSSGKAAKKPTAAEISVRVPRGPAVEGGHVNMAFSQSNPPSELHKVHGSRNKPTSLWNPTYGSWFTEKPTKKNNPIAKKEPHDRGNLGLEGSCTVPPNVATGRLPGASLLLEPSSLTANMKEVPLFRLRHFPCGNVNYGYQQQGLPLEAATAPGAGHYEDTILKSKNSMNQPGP
T1 sequence (Q9UM73 with tags, fused parts or gaps): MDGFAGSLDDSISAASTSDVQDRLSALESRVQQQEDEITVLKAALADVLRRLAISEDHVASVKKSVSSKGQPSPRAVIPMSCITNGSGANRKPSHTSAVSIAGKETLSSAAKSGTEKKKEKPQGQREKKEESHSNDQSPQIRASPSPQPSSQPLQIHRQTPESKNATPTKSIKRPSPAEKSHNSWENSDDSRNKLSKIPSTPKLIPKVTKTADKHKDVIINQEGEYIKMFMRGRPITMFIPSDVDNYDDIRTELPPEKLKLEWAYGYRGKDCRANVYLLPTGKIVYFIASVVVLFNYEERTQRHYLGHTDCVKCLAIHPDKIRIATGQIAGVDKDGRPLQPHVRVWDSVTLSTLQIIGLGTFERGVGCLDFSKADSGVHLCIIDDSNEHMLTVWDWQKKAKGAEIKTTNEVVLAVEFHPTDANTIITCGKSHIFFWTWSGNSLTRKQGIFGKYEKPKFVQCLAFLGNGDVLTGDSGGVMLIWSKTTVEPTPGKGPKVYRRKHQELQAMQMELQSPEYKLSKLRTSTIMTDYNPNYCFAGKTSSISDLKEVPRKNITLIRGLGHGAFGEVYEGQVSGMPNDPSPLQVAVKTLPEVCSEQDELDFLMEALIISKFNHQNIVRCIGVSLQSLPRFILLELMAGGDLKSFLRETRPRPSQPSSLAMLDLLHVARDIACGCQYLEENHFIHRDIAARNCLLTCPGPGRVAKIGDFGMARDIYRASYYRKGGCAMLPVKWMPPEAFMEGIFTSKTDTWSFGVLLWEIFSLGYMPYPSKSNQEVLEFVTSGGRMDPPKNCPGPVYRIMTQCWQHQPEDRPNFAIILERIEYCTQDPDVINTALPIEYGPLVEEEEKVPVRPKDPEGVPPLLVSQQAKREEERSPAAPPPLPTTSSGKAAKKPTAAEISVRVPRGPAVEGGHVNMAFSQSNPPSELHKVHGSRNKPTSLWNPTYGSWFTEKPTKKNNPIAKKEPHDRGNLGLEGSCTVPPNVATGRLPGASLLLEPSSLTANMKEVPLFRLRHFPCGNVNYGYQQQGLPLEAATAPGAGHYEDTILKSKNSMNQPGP

CCc1cc2c(cc1N1CCC(N3CCOCC3)CC1)C(C)(C)c1[nH]c3cc(C#N)ccc3c1C2=O [Alectinib, reference compound] showed an IC50 ([1]; 72 h) of 1480 nM, an IC50 (MOLM13 cells (FLT3-ITD); [8]) of 255 nM and an IC50 [2] of 800 nM.
For C[C@@H](Oc1cc(-c2cnn(C3CCNCC3)c2)cnc1N)c1c(Cl)ccc(F)c1Cl [Crizotinib, reference compound], the IC50 ([1]; 72 h) was 2570 nM and the IC50 (MOLM13 cells (FLT3-ITD); [8]) was 291 nM.
In the case of Cc1cc(Nc2ncc(Cl)c(Nc3ccccc3S(=O)(=O)C(C)C)n2)c(OC(C)C)cc1C1CCN(C(=O)CCOCCOCCOCCNc2cccc3c2C(=O)N(C2CCC(=O)NC2=O)C3=O)CC1 (stereo not shown) [SIAIS151028, 4-((2-(2-(2-(3-(4-(4-((5-chloro-4-((2-(isopropylsulfonyl)phenyl)amino)pyrimidin-2-yl)amino)-5-isopropoxy-2-methylphenyl)piperidin-1-yl)-3-oxopropoxy)ethoxy)ethoxy)ethyl)amino)-2-(2,6-dioxopiperidin-3-yl)isoindoline-1,3-dione], the DC50 [3] is reported as 20 to 100 nM, the IC50 ([4]; CTB (Cell Titer Blue)) is reported as 6 nM and the IC50 ([4]; CTG (Cell Titer Glo)) is reported as 80 nM. For the same compound, the IC50 (SR (NPM-ALK) cells; [9]) was 38 nM.
In the case of Cc1cc(Nc2ncc(Cl)c(Nc3ccccc3S(=O)(=O)C(C)C)n2)c(OC(C)C)cc1C1CCN(C(=O)CCOCCOCCOCCOCCOCCNc2cccc3c2C(=O)N(C2CCC(=O)NC2=O)C3=O)CC1 (stereo not shown) [SIAIS151029, 4-((18-(4-(4-((5-chloro-4-((2-(isopropylsulfonyl)phenyl)amino)pyrimidin-2-yl)amino)-5-isopropoxy-2-methylphenyl)piperidin-1-yl)-18-oxo-3,6,9,12,15-pentaoxaoctadecyl)amino)-2-(2,6-dioxopiperidin-3-yl)isoindoline-1,3-dione], the DC50 [3] is reported as 10 to 50 nM, the IC50 ([4]; CTB (Cell Titer Blue)) is reported as 23 nM and the IC50 ([4]; CTG (Cell Titer Glo)) is reported as 95 nM.
Cc1cc(Nc2ncc(Cl)c(Nc3ccccc3S(=O)(=O)C(C)C)n2)c(OC(C)C)cc1C1CCN(C(=O)CCOCCNc2cccc3c2C(=O)N(C2CCC(=O)NC2=O)C3=O)CC1 (stereo not shown) [SIAIS151031, 4-((2-(3-(4-(4-((5-chloro-4-((2-(isopropylsulfonyl)phenyl)amino)pyrimidin-2-yl)amino)-5-isopropoxy-2-methylphenyl)piperidin-1-yl)-3-oxopropoxy)ethyl)amino)-2-(2,6-dioxopiperidin-3-yl)isoindoline-1,3-dione] gave a DC50 [3] of 100 to 500 nM, an IC50 ([4]; CTB (Cell Titer Blue)) of 7 nM and an IC50 ([4]; CTG (Cell Titer Glo)) of 81 nM. It also gave an IC50 (SR (NPM-ALK) cells; [9]) of 85 nM.
With Cc1cc(Nc2ncc(Cl)c(Nc3ccccc3S(=O)(=O)C(C)C)n2)c(OC(C)C)cc1C1CCN(C(=O)CCCNc2cccc3c2C(=O)N(C2CCC(=O)NC2=O)C3=O)CC1 (stereo not shown) [SIAIS151035, 4-((4-(4-(4-((5-chloro-4-((2-(isopropylsulfonyl)phenyl)amino)pyrimidin-2-yl)amino)-5-isopropoxy-2-methylphenyl)piperidin-1-yl)-4-oxobutyl)amino)-2-(2,6-dioxopiperidin-3-yl)isoindoline-1,3-dione] the DC50 [3] was 50 to 100 nM and the IC50 ([4]; CTB (Cell Titer Blue)) was 33 nM.
Cc1cc(Nc2ncc(Cl)c(Nc3ccccc3S(=O)(=O)C(C)C)n2)c(OC(C)C)cc1C1CCN(C(=O)CNc2cccc3c2C(=O)N(C2CCC(=O)NC2=O)C3=O)CC1 (stereo not shown) [SIAIS151037, 4-((2-(4-(4-((5-chloro-4-((2-(isopropylsulfonyl)phenyl)amino)pyrimidin-2-yl)amino)-5-isopropoxy-2-methylphenyl)piperidin-1-yl)-2-oxoethyl)amino)-2-(2,6-dioxopiperidin-3-yl)isoindoline-1,3-dione] was tested, and the DC50 [3] was 50 to 100 nM and the IC50 ([4]; CTB (Cell Titer Blue)) was 151 nM.
COc1cc(N2CCC(N3CCN(C(=O)CCOCCNc4cccc5c4C(=O)N(C4CCC(=O)NC4=O)C5=O)CC3)CC2)ccc1Nc1ncc(Cl)c(Nc2ccccc2P(C)(C)=O)n1 (stereo not shown) [SIAIS164007, 4-((2-(3-(4-(1-(4-((5-chloro-4-((2-(dimethylphosphoryl)phenyl)amino)pyrimidin-2-yl)amino)-3-methoxyphenyl)piperidin-4-yl)piperazin-1-yl)-3-oxopropoxy)ethyl)amino)-2-(2,6-dioxopiperidin-3-yl)isoindoline-1,3-dione] was tested, and the DC50 [3] was 10 to 50 nM, the IC50 [5] was 1610 nM and the IC50 [6] was 358 nM. It also gave an IC50 (SR (NPM-ALK) cells; [10]) of 3.8 ± 1.9 nM and a DC50 [7] of 1 to 10 nM.
COc1cc(N2CCC(N3CCN(C(=O)CCCCNc4cccc5c4C(=O)N(C4CCC(=O)NC4=O)C5=O)CC3)CC2)ccc1Nc1ncc(Cl)c(Nc2ccccc2P(C)(C)=O)n1 (stereo not shown) [SIAIS164021, 4-((5-(4-(1-(4-((5-chloro-4-((2-(dimethylphosphoryl)phenyl)amino)pyrimidin-2-yl)amino)-3-methoxyphenyl)piperidin-4-yl)piperazin-1-yl)-5-oxopentyl)amino)-2-(2,6-dioxopiperidin-3-yl)isoindoline-1,3-dione] showed a DC50 [3] of 1 to 10 nM, an IC50 [5] of 2440 nM and an IC50 [6] of 434 nM. For the same compound, the IC50 (SR (NPM-ALK) cells; [10]) was 7.4 ± 5 nM, the DC50 [7] was 0.1 to 0.5 nM and the “concentration at which ALK proteins were degraded” value ([7]; SR cells, western blot) was 1 nM.
Work on COc1cc(N2CCC(N3CCN(C(=O)CCCCCNc4cccc5c4C(=O)N(C4CCC(=O)NC4=O)C5=O)CC3)CC2)ccc1Nc1ncc(Cl)c(Nc2ccccc2P(C)(C)=O)n1 (stereo not shown) [SIAIS164022, 4-((6-(4-(1-(4-((5-chloro-4-((2-(dimethylphosphoryl)phenyl)amino)pyrimidin-2-yl)amino)-3-methoxyphenyl)piperidin-4-yl)piperazin-1-yl)-6-oxohexyl)amino)-2-(2,6-dioxopiperidin-3-yl)isoindoline-1,3-dione] yielded a DC50 [3] of 1 to 10 nM, an IC50 [5] of 696 nM and an IC50 [6] of 233 nM. It also gave an IC50 (SR (NPM-ALK) cells; [10]) of 3.3 ± 2.2 nM and a DC50 [7] of 1 to 10 nM.
With COc1cc(N2CCC(NC(=O)CCCCCCC(=O)N[C@H](C(=O)N3C[C@H](O)C[C@H]3C(=O)NCc3ccc(-c4scnc4C)cc3)C(C)(C)C)CC2)ccc1Nc1ncc(Cl)c(Nc2ccccc2P(C)(C)=O)n1 [SIAIS164147, N1-(1-(4-((5-chloro-4-((2-(dimethylphosphoryl)phenyl)amino)pyrimidin-2-yl)amino)-3-methoxyphenyl)piperidin-4-yl)-N8-((S)-1-((2S,4R)-4-hydroxy-2-((4-(4-methylthiazol-5-yl)benzyl)carbamoyl)pyrrolidin-1-yl)-3,3-dimethyl-1-oxobutan-2-yl)octanediamide] the DC50 [3] was 0.02 to 1 nM, the IC50 [5] was 1280 nM and the IC50 [6] was 321 nM. The IC50 (SR (NPM-ALK) cells; [10]) was 2 ± 1.2 nM and the DC50 [7] was 1 to 10 nM.
COc1cc(N2CCC(NC(=O)CCCCCCCC(=O)N[C@H](C(=O)N3C[C@H](O)C[C@H]3C(=O)NCc3ccc(-c4scnc4C)cc3)C(C)(C)C)CC2)ccc1Nc1ncc(Cl)c(Nc2ccccc2P(C)(C)=O)n1 [SIAIS164148] was tested, and the DC50 [3] was 1 to 50 nM, the IC50 [5] was 1340 nM and the IC50 [6] was 153 nM. The IC50 (SR (NPM-ALK) cells; [10]) was 1.5 ± 0.8 nM and the DC50 [7] was 1 to 10 nM.
COc1cc(N2CCC(NC(=O)CCCCCCCCC(=O)N[C@H](C(=O)N3C[C@H](O)C[C@H]3C(=O)NCc3ccc(-c4scnc4C)cc3)C(C)(C)C)CC2)ccc1Nc1ncc(Cl)c(Nc2ccccc2P(C)(C)=O)n1 [SIAIS164149, N1-(1-(4-((5-chloro-4-((2-(dimethylphosphoryl)phenyl)amino)pyrimidin-2-yl)amino)-3-methoxyphenyl)piperidin-4-yl)-N10-((S)-1-((2S,4R)-4-hydroxy-2-((4-(4-methylthiazol-5-yl)benzyl)carbamoyl)pyrrolidin-1-yl)-3,3-dimethyl-1-oxobutan-2-yl)decanediamide] was tested, and the “DC50 (nM)) in H3122” value [3] was 0.02 to 20 nM, the IC50 [5] was 988 nM and the IC50 [6] was 187 nM. It also gave an IC50 (SR (NPM-ALK) cells; [10]) of 2.3 ± 2 nM and a DC50 [7] of 1 to 10 nM.
COc1cc(N2CCC(N3CCN(C(=O)CNc4cccc5c4CN(C4CCC(=O)NC4=O)C5=O)CC3)CC2)ccc1Nc1ncc(Cl)c(Nc2ccccc2P(C)(C)=O)n1 (stereo not shown) [SIAIS219073, 3-(4-((2-(4-(1-(4-((5-chloro-4-((2-(dimethylphosphoryl)phenyl)amino)pyrimidin-2-yl)amino)-3-methoxyphenyl)piperidin-4-yl)piperazin-1-yl)-2-oxoethyl)amino)-1-oxoisoindolin-2-yl)piperidine-2,6-dione] gave an IC50 ([1]; U118MG cells, 72 hours, n = 2, reagent CTG) greater than 20000 nM, an IC50 (MOLM13 cells (FLT3-ITD); MOLM-13, MOLM13 cells, n = 2, reagent CTG, read-out: Half Inhibitory Concentration (IC50) Mean) of 373 nM and an IC50 (SR (NPM-ALK) cells; [10]) of 1.8 ± 1 nM. For the same compound, the IC50 [2] was greater than 20000 nM.
